{
  "source": "patent US20100160454A1",
  "about": "“ANTIMICROBIAL AGENTS, COMPOSITIONS AND PRODUCTS CONTAINING THE SAME, AND METHODS OF USING THE COMPOSITIONS AND PRODUCTS” (Eastman Chemical Company, priority 2008, published 2010)",
  "assay_type_in_all_cases": "cell-based",
  "key": {"[1]": {"tested_on": "Microsporum canis (ATTC 9084)", "assay": "Challenge testing against pathogenic fungi, growth rating in broth tubes", "set-up": "key: 0: No visible growth; 1: Some growth in tube; 2: Moderate growth in tube; 3: Good growth in tube; 4: Extreme growth in tube", "how_it_was_run": "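Fungi grown in Sabouraud dextrose broth (M. furfur with 2% olive oil/0.2% Tween 80), 22±2 °C; tubes of 1,4-CHDM-D90 dilutions inoculated, static incubation, subcultured at 3, 14, 30 days, triplicate. Growth rated 0–4: visually (M. canis), INT redox dye (T. rubrum), pellicle formation (M. furfur); 30-day MIC.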"}, "[2]": {"tested_on": "Escherichia coli ATCC 25922", "assay": "Microbiological challenge testing in BPW broth, graded subculture counts", "conditions": "E. Coli", "how_it_was_run": "(§1)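 Strains grown in TSB with 1% dextrose at 35 °C for ≥96 h. Inoculum added to BPW broth with 1% dextrose, with or without test material (w/v), to 10^5–10^6 CFU/mL at time zero. Counts by spread-plating serial 1:10 dilutions in pH 7.2 phosphate buffer on PCA, incubated at 35 °C for ≥48 h.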"}, "[3]": {"tested_on": "Proteus vulgaris Wild type", "assay": "Microbiological challenge testing in BPW broth, graded subculture counts", "how_it_was_run": "as §1"}, "[4]": {"tested_on": "Pseudomonas aeruginosa Wild type", "assay": "Microbiological challenge testing in BPW broth, graded subculture counts", "conditions": "P. aeruginosa", "how_it_was_run": "as §1"}},
  "data": [
    {"smiles": "CC1(C)C(O)C(C)(C)C1O", "note": "(stereo not drawn) [TMCBD, 2,2,4,4-tetramethyl-1,3-cyclobutanediol]", "values": [
      {"measurement": "M. canis growth rating, 3 day", "setting": "[1]; 0.5% weight/volume", "value": 2},
      {"measurement": "M. canis growth rating, 14 day", "setting": "[1]; 0.5% weight/volume", "value": 1},
      {"measurement": "M. canis growth rating, 30 day", "setting": "[1]; 0.5% weight/volume", "value": 1},
      {"measurement": "M. canis growth rating, 3 day", "setting": "[1]; 1.25% weight/volume", "value": 2},
      {"measurement": "M. canis growth rating, 14 day", "setting": "[1]; 1.25% weight/volume", "value": 1},
      {"measurement": "M. canis growth rating, 30 day", "setting": "[1]; 1.25% weight/volume", "value": 0},
      {"measurement": "M. canis growth rating, 3 day", "setting": "[1]; 2.5% weight/volume", "value": 2},
      {"measurement": "M. canis growth rating, 14 day", "setting": "[1]; 2.5% weight/volume", "value": 1},
      {"measurement": "M. canis growth rating, 30 day", "setting": "[1]; 2.5% weight/volume", "value": 1},
      {"measurement": "M. canis growth rating, 3 day", "setting": "[1]; 5.0% weight/volume", "value": 2},
      {"measurement": "M. canis growth rating, 14 day", "setting": "[1]; 5.0% weight/volume", "value": 1},
      {"measurement": "M. canis growth rating, 30 day", "setting": "[1]; 5.0% weight/volume", "value": 1},
      {"measurement": "Grade", "setting": "[2]; 0.5% (wt/vol), 3 day", "value": "5 (More than 10,000 colonies estimated (thus more than 100,000 CFU/mL))"},
      {"measurement": "Grade", "setting": "[2]; 0.5% (wt/vol), 14 day", "value": "5 (More than 10,000 colonies estimated (thus more than 100,000 CFU/mL))"},
      {"measurement": "Grade", "setting": "[2]; 0.5% (wt/vol), 30 day", "value": "5 (More than 10,000 colonies estimated (thus more than 100,000 CFU/mL))"},
      {"measurement": "Grade", "setting": "[2]; 1.25% (wt/vol), 3 day", "value": "4 (1000 to 10,000 colonies countable (thus 10,000 CFU/mL to 100,000 CFU/mL))"},
      {"measurement": "Grade", "setting": "[2]; 1.25% (wt/vol), 14 day", "value": "4 (1000 to 10,000 colonies countable (thus 10,000 CFU/mL to 100,000 CFU/mL))"},
      {"measurement": "Grade", "setting": "[2]; 1.25% (wt/vol), 30 day", "value": "4 (1000 to 10,000 colonies countable (thus 10,000 CFU/mL to 100,000 CFU/mL))"},
      {"measurement": "Grade", "setting": "[2]; 2.5% (wt/vol), 3 day", "value": "4 (1000 to 10,000 colonies countable (thus 10,000 CFU/mL to 100,000 CFU/mL))"},
      {"measurement": "Grade", "setting": "[2]; 2.5% (wt/vol), 14 day", "value": "4 (1000 to 10,000 colonies countable (thus 10,000 CFU/mL to 100,000 CFU/mL))"},
      {"measurement": "Grade", "setting": "[2]; 2.5% (wt/vol), 30 day", "value": "4 (1000 to 10,000 colonies countable (thus 10,000 CFU/mL to 100,000 CFU/mL))"},
      {"measurement": "Grade", "setting": "[2]; 5.0% (wt/vol), 3 day", "value": 0},
      {"measurement": "Grade", "setting": "[2]; 5.0% (wt/vol), 14 day", "value": 0},
      {"measurement": "Grade", "setting": "[2]; 5.0% (wt/vol), 30 day", "value": 0},
      {"measurement": "P. vulgaris growth grade, 3 day", "setting": "[3]; 0.5% weight/volume", "value": "4 (1000 to 10,000 colonies countable (thus 10,000 CFU/mL to 100,000 CFU/mL))"},
      {"measurement": "P. vulgaris growth grade, 13 day", "setting": "[3]; 0.5% weight/volume", "value": "4 (1000 to 10,000 colonies countable (thus 10,000 CFU/mL to 100,000 CFU/mL))"},
      {"measurement": "P. vulgaris growth grade, 30 day", "setting": "[3]; 0.5% weight/volume", "value": "4 (1000 to 10,000 colonies countable (thus 10,000 CFU/mL to 100,000 CFU/mL))"},
      {"measurement": "P. vulgaris growth grade, 3 day", "setting": "[3]; 1.25% weight/volume", "value": "3 (100 to 1000 colonies (thus 1000 to 10,000 CFU/mL))"},
      {"measurement": "P. vulgaris growth grade, 13 day", "setting": "[3]; 1.25% weight/volume", "value": "2 (52 to 100 colonies counted (thus 520 to 1000 CFU/mL))"},
      {"measurement": "P. vulgaris growth grade, 30 day", "setting": "[3]; 1.25% weight/volume", "value": 0},
      {"measurement": "P. vulgaris growth grade, 3 day", "setting": "[3]; 2.5% weight/volume", "value": "4 (1000 to 10,000 colonies countable (thus 10,000 CFU/mL to 100,000 CFU/mL))"},
      {"measurement": "P. vulgaris growth grade, 13 day", "setting": "[3]; 2.5% weight/volume", "value": "1 (0 to 51 colonies counted (thus 10 to 510 CFU/mL based on 0.1-mL sample))"},
      {"measurement": "P. vulgaris growth grade, 30 day", "setting": "[3]; 2.5% weight/volume", "value": 0},
      {"measurement": "P. vulgaris growth grade, 3 day", "setting": "[3]; 5.0% weight/volume", "value": 0},
      {"measurement": "P. vulgaris growth grade, 13 day", "setting": "[3]; 5.0% weight/volume", "value": 0},
      {"measurement": "P. vulgaris growth grade, 30 day", "setting": "[3]; 5.0% weight/volume", "value": 0},
      {"measurement": "Grade", "setting": "[4]; 0.5% (wt/vol), 3 day", "value": "5 (More than 10,000 colonies estimated (thus more than 100,000 CFU/mL))"},
      {"measurement": "Grade", "setting": "[4]; 0.5% (wt/vol), 13 day", "value": "5 (More than 10,000 colonies estimated (thus more than 100,000 CFU/mL))"},
      {"measurement": "Grade", "setting": "[4]; 0.5% (wt/vol), 30 day", "value": "5 (More than 10,000 colonies estimated (thus more than 100,000 CFU/mL))"},
      {"measurement": "Grade", "setting": "[4]; 1.25% (wt/vol), 3 day", "value": "4 (1000 to 10,000 colonies countable (thus 10,000 CFU/mL to 100,000 CFU/mL))"},
      {"measurement": "Grade", "setting": "[4]; 1.25% (wt/vol), 13 day", "value": "4 (1000 to 10,000 colonies countable (thus 10,000 CFU/mL to 100,000 CFU/mL))"},
      {"measurement": "Grade", "setting": "[4]; 1.25% (wt/vol), 30 day", "value": "4 (1000 to 10,000 colonies countable (thus 10,000 CFU/mL to 100,000 CFU/mL))"},
      {"measurement": "Grade", "setting": "[4]; 2.5% (wt/vol), 3 day", "value": "4 (1000 to 10,000 colonies countable (thus 10,000 CFU/mL to 100,000 CFU/mL))"},
      {"measurement": "Grade", "setting": "[4]; 2.5% (wt/vol), 13 day", "value": "3 (100 to 1000 colonies (thus 1000 to 10,000 CFU/mL))"},
      {"measurement": "Grade", "setting": "[4]; 2.5% (wt/vol), 30 day", "value": "4 (1000 to 10,000 colonies countable (thus 10,000 CFU/mL to 100,000 CFU/mL))"},
      {"measurement": "Grade", "setting": "[4]; 5.0% (wt/vol), 3 day", "value": "3 (100 to 1000 colonies (thus 1000 to 10,000 CFU/mL))"},
      {"measurement": "Grade", "setting": "[4]; 5.0% (wt/vol), 13 day", "value": "1 (0 to 51 colonies counted (thus 10 to 510 CFU/mL based on 0.1-mL sample))"},
      {"measurement": "Grade", "setting": "[4]; 5.0% (wt/vol), 30 day", "value": 0}
    ]}
  ]
}
